Literature values in patent publication US12653843B2, “Compositions comprising extracellular matrix of primitive animal species and related methods” (University of Pittsburgh—Of the Commonwealth System of …, priority 2016, dated 2026).

Target: ErbB2 (Homo sapiens, UniProt P04626)
Sequence (P04626 23-1255, species assumed): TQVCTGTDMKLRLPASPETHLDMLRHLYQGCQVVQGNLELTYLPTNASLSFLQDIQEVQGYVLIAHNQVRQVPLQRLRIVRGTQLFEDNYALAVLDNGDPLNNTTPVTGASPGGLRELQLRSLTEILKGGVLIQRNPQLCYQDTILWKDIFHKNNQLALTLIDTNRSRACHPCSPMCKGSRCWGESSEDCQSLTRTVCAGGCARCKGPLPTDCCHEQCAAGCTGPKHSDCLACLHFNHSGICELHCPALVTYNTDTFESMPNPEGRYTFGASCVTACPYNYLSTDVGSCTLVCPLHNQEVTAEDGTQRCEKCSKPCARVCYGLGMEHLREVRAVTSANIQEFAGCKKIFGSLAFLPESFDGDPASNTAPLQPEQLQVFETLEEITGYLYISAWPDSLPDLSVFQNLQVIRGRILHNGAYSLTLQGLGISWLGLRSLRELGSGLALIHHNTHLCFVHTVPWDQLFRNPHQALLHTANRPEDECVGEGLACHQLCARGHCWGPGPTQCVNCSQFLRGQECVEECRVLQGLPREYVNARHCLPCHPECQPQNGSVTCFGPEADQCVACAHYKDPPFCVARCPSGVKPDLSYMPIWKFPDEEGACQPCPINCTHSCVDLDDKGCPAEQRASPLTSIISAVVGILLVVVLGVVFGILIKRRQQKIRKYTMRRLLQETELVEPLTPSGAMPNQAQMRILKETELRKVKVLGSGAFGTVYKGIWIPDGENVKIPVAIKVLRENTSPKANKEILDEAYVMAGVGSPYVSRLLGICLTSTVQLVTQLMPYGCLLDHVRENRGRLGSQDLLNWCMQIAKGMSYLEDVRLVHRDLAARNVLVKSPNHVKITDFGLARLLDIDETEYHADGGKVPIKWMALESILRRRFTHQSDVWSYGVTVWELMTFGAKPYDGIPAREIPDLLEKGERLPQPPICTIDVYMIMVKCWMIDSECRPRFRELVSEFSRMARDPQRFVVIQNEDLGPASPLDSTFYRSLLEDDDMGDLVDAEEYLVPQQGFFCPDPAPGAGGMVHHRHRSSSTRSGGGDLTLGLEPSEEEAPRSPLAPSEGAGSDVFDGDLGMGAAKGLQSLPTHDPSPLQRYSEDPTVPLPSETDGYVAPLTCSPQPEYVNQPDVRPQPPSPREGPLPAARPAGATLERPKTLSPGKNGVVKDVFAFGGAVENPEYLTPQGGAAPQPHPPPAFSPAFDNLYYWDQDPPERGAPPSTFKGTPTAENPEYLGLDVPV

selectivity: inhibition of ErbB2 autophosphorylation versus ErbB1 (EGFR): ~60 fold
Structure (SMILES): COc1cc(/C=C(\C#N)C(N)=O)cc(CSc2nc3ccccc3s2)c1O [AG825]
